Assay [1] deals with T1, C5a anaphylatoxin chemotactic receptor 1 (Homo sapiens) (UniProt P21730).
T1 sequence (whole entry): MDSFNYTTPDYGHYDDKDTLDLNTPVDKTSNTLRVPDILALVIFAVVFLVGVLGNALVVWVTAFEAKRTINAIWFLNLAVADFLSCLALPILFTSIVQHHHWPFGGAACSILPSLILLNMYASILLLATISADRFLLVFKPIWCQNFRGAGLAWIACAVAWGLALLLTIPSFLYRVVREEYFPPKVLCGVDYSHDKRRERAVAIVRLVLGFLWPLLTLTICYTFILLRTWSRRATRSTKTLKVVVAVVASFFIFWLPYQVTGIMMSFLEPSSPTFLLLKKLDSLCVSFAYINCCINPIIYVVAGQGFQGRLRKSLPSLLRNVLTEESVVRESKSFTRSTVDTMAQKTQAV
Kind of assay: Displacement of [125I]-C5a from C5aR in human MDM cells at 20 uM after 60 mins by microbeta scintillation counting analysis. In kind it is cell-based. On the technique in general: Displacement assays read how much labelled ligand stays bound in the presence of the test substance.

Assay [2] deals with T2, C3a anaphylatoxin chemotactic receptor (Homo sapiens) (UniProt Q16581).
T2 sequence (whole entry): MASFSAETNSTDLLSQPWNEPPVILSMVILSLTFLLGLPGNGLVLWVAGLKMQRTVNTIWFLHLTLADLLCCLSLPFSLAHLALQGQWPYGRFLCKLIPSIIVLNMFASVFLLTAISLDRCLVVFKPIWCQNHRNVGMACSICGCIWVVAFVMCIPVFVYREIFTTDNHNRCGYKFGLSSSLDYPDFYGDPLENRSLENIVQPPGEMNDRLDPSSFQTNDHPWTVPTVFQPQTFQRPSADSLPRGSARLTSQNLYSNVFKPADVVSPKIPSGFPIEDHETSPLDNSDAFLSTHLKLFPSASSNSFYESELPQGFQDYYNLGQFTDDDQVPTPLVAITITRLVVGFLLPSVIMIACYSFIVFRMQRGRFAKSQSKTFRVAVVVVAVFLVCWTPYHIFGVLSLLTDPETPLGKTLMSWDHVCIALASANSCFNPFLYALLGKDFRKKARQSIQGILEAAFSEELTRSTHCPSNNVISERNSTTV
Kind of assay: Agonist activity at C3aR in human MDM cells assessed as inhibition of C3a-induced Ca2+ response at 10 uM measured for 60 secs by fluorescence assay relative to 100 nM C3a. Format: functional, cell-based.

Assay [3] addresses T2, C3a anaphylatoxin chemotactic receptor (Homo sapiens). In words: Displacement of [125I]-C3a from C3aR in human MDM cells at 20 uM after 60 mins by microbeta scintillation counting analysis. Format: cell-based.
For assay [4], the target named is T3, C3a anaphylatoxin chemotactic receptor (Homo sapiens, UniProt Q16581).
T3 sequence (Q16581 whole entry): T2 sequence (whole entry)
Kind of assay: Displacement of [125I]-C3a from C3aR in human MDM cells after 60 mins by microbeta scintillation counting analysis. In kind it is cell-based.

In general, inhibition refers to the drop in the measured response relative to a control, in per cent. Usually IC50 stands for the concentration needed to halve the response being measured. A lower IC50 goes with greater potency.

Active and inactive are the calls of the source. The calls are words filed in the database; no cut-off is given here.

In the case of `COc1ccccc1CC(=O)N[C@@H](CC(C)C)c1nc(C(=O)N[C@@H](CCCNC(=N)N)C(=O)O)c(C)o1`, in assay [1], the inhibition entry is “inactive”. Further, the values for the inhibition in assay [2] and in assay [3] were 81% and 43%, respectively.

Take `COc1ccc(CC(=O)N[C@@H](CC(C)C)c2nc(C(=O)N[C@@H](CCCNC(=N)N)C(=O)O)c(C)o2)cc1`: in assay [1], the inhibition result is “inactive”. Also, the inhibition is 26% in assay [2] and 40% in assay [3].

As to `CC(C)Cc1ccc(C(C)C(=O)N[C@@H](CC(C)C)c2nc(C(=O)N[C@@H](CCCNC(=N)N)C(=O)O)co2)cc1` (stereo partly specified), the inhibition entry in assay [1] is “inactive”. The IC50 in assay [4] was 1.03 µM.

For `Cc1oc([C@H](CC(C)C)NC(=O)C2CCCCC2)nc1C(=O)N[C@@H](CCCNC(=N)N)C(=O)O`, the inhibition result in assay [1] was “inactive”. Also, the inhibition in assay [2] amounted to 107%; in assay [3] it was 39%.

Turning to `Cc1oc([C@H](CC(C)C)NC(=O)c2cc3ccccc3s2)nc1C(=O)N[C@@H](CCCNC(=N)N)C(=O)O`, the inhibition entry in assay [1] was “inactive”. Besides, the inhibition in assay [2] is 62%; in assay [3] it was 14%.

On to `Cc1oc([C@H](CC(C)C)NC(=O)c2cncc(Br)c2)nc1C(=O)N[C@@H](CCCNC(=N)N)C(=O)O`, for which the inhibition result in assay [1] and in assay [3] was “inactive” in each case. Moreover, the inhibition in assay [2] amounted to 105%.

Regarding `COc1ccc(CC(=O)N[C@@H](CC(C)C)c2nc(C(=O)N[C@@H](CCCNC(=N)N)C(=O)O)c(C)o2)cc1OC`, the inhibition entry in assay [1] is “inactive”. Also, the inhibition in assay [2] amounted to 67%; in assay [3], 65%.

As for `CC[C@H](C)[C@H](NC(=O)c1ccc(OC)cc1OC)c1nc(C(=O)N[C@@H](CCCNC(=N)N)C(=O)O)co1`, the inhibition entry in assay [1] is “inactive”. The 50% inhibitory concentration (IC50) in assay [4] was 0.87 µM.

On to `CC(C)C[C@H](NC(=O)C1c2ccccc2-c2ccccc21)c1nc(C(=O)N[C@@H](CCCNC(=N)N)C(=O)O)co1`, for which the inhibition result in assay [1] is “inactive”. In assay [4], this compound returned a 50% inhibitory concentration (IC50) of 0.142 µM.

On to `Cc1oc([C@H](CC(C)C)NC(=O)c2ccc(/N=N/c3ccccc3)cc2)nc1C(=O)N[C@@H](CCCNC(=N)N)C(=O)O`, for which the inhibition result in assay [1] was “inactive”. In addition, the figures for the inhibition in assay [2] and in assay [3] were 48% and 49%, respectively.

Regarding `Cc1oc([C@H](CC(C)C)NC(=O)c2ccccn2)nc1C(=O)N[C@@H](CCCNC(=N)N)C(=O)O`, in assay [1], the inhibition result is “inactive”. Further, the inhibition in assay [2] came out at 77%; in assay [3], 31%.

`CC[C@H](C)[C@H](NC(=O)c1ccccc1)c1nc(C(=O)N[C@@H](CCCNC(=N)N)C(=O)O)co1`: in assay [1], the inhibition entry was “inactive”. In addition, the 50% inhibitory concentration (IC50) in assay [4] amounted to 0.027 µM.

As for `COc1ccc(OC)c(CC(=O)N[C@@H](CC(C)C)c2nc(C(=O)N[C@@H](CCCNC(=N)N)C(=O)O)c(C)o2)c1`, the inhibition entry in assay [1] was “inactive”. Besides, the results for the inhibition in assay [2] and in assay [3] were 69% and 42%, respectively.

Regarding `Cc1oc([C@H](CC(C)C)NC(=O)c2ccncc2)nc1C(=O)N[C@@H](CCCNC(=N)N)C(=O)O`, the inhibition entry in assay [1] and in assay [3] was “inactive” in each case. Further, in assay [2], the inhibition came to 109%.

Take `CC[C@H](C)[C@H](NC(=O)C1CCCc2ccccc21)c1nc(C(=O)N[C@@H](CCCNC(=N)N)C(=O)O)co1` (stereo partly specified): the inhibition result in assay [1] is “inactive”. The compound further showed an IC50 in assay [4] of 0.104 µM.

Turning to `Cc1oc([C@H](CC(C)C)NC(=O)c2cc3ccccc3o2)nc1C(=O)N[C@@H](CCCNC(=N)N)C(=O)O`, the inhibition result in assay [1] is “inactive”. The figures for the inhibition in assay [2] and in assay [3] were 84% and 19%, respectively.

With `CC[C@H](C)[C@H](NC(=O)C(C)c1ccc2cc(OC)ccc2c1)c1nc(C(=O)N[C@@H](CCCNC(=N)N)C(=O)O)co1` (stereo partly specified), in assay [1], the inhibition entry is “inactive”.

For the compound `CC[C@H](C)[C@H](NC(=O)Cc1c[nH]c2ccccc12)c1nc(C(=O)N[C@@H](CCCNC(=N)N)C(=O)O)co1`, the inhibition result in assay [1] was “inactive”. Further, in assay [4], the concentration for half-maximal inhibition (IC50) was 0.152 µM.

With `Cc1oc([C@H](CC(C)C)NC(=O)CC(C)(C)C)nc1C(=O)N[C@@H](CCCNC(=N)N)C(=O)O`, the inhibition result in assay [1] was “inactive”. Further, the inhibition in assay [2] was determined as 70%; in assay [3], 44%.

Regarding `COc1ccc(CCC(=O)N[C@@H](CC(C)C)c2nc(C(=O)N[C@@H](CCCNC(=N)N)C(=O)O)c(C)o2)cc1`, the inhibition result in assay [1] is “inactive”. Further, the inhibition in assay [2] and in assay [3] was 44% each time.

On to `CC[C@H](C)[C@H](NC(=O)c1cccc(OC)c1OC)c1nc(C(=O)N[C@@H](CCCNC(=N)N)C(=O)O)co1`, for which the inhibition entry in assay [1] was “inactive”. Also, the IC50 in assay [4] was determined as 0.71 µM.

Regarding `Cc1oc([C@H](CC(C)C)NC(=O)CCC(C)C)nc1C(=O)N[C@@H](CCCNC(=N)N)C(=O)O`, the inhibition result in assay [1] and in assay [3] was “inactive” in each case. Also, the inhibition in assay [2] was determined as 95%.

As to `Cc1oc([C@H](CC(C)C)NC(=O)c2cccnc2)nc1C(=O)N[C@@H](CCCNC(=N)N)C(=O)O`, the inhibition entry in assay [1] was “inactive”. The inhibition was determined as 68% in assay [2] and 29% in assay [3].

For `COc1cccc(C(=O)N[C@@H](CC(C)C)c2nc(C(=O)N[C@@H](CCCNC(=N)N)C(=O)O)c(C)o2)c1`, the inhibition result in assay [1] and in assay [3] was “inactive” in each case. Further, the inhibition in assay [2] came out at 134%.

On to `Cc1oc([C@H](CC(C)C)NC(=O)S(=O)(=O)c2ccccc2)nc1C(=O)N[C@@H](CCCNC(=N)N)C(=O)O`, for which, in assay [1], the inhibition entry is “inactive”. In addition, the values for the inhibition in assay [2] and in assay [3] were 103% and 44%, respectively.

For `Cc1oc([C@H](CC(C)C)NC(=O)c2ccc(Oc3ccccc3)cc2)nc1C(=O)N[C@@H](CCCNC(=N)N)C(=O)O`, the inhibition entry in assay [1] was “inactive”. Besides, the inhibition in assay [2] came out at 68%; in assay [3], 32%.

`Cc1oc([C@H](CC(C)C)NC(=O)NCc2ccccc2)nc1C(=O)N[C@@H](CCCNC(=N)N)C(=O)O`: the inhibition result in assay [1] was “inactive”. For the same compound, the values for the inhibition in assay [2] and in assay [3] were 50% and 61%, respectively.

As for `Cc1oc([C@H](CC(C)C)NC(=O)c2ccc(C(F)(F)F)cc2)nc1C(=O)N[C@@H](CCCNC(=N)N)C(=O)O`, in assay [1], the inhibition entry was “inactive”. In addition, the inhibition in assay [2] was 50%; in assay [3], 61%.

In the case of `Cc1oc([C@H](CC(C)C)NC(=O)CC2CCCCC2)nc1C(=O)N[C@@H](CCCNC(=N)N)C(=O)O`, the inhibition entry in assay [1] was “inactive”. Further, the inhibition in assay [2] worked out at 69%; in assay [3], 26%.

Take `Cc1oc([C@H](CC(C)C)NC(=O)c2cc3ccccc3[nH]2)nc1C(=O)N[C@@H](CCCNC(=N)N)C(=O)O`: the inhibition entry in assay [1] is “inactive”. The inhibition in assay [2] is 56%; in assay [3], 26%.

For the compound `COc1cccc(CC(=O)N[C@@H](CC(C)C)c2nc(C(=O)N[C@@H](CCCNC(=N)N)C(=O)O)c(C)o2)c1`, the inhibition entry in assay [1] was “inactive”. In addition, the inhibition in assay [2] is 87%; in assay [3], 41%.

For the compound `Cc1ccc(NC(=O)N[C@@H](CC(C)C)c2nc(C(=O)N[C@@H](CCCNC(=N)N)C(=O)O)c(C)o2)cc1`, the inhibition in assay [2] turned out to be 64%. The inhibition result in assay [3] was “inactive”.

The record behind these values is ChEMBL document CHEMBL3734743, “Potent complement C3a receptor agonists derived from oxazole amino acids: Structure-activity relationships” (Bioorg Med Chem Lett, 2015).
